Consider one molecule from EP0604248A1, “Use of 5-methoxypsoralen for the treatment of AIDS” (Goupil, Jean-Jacques, priority 1992, dated 1994).

Structures are written as SMILES.

Assay [1] deals with VIH-1. Put plainly: Residual infectivity of treated HIV-1 on MT4 cells (cytopathic effect, p25 antigen, reverse transcriptase activity). It counts as cell-based. The following applies: Human immunodeficiency virus 1, light or radiation study. The protocol: (§1) Cette étude a été réalisée en 2 étapes : • traitements du virus VIH-1 (ou HIV-1) par le 5-méthoxypsoralène (5-MOP) et les UVA. • étude de l'infectivité résiduelle des échantillons traités à l'aide des tests sur cellules MT4 et sur lymphocytes activés.
(§2) Le virus a été traité par 10 µg/ml de 5-MOP, puis exposé aux UVA (1 à 2 Joules/cm²) de la façon suivante: • 4 ml de virus VIH-1 ont été traités avec 40 µl de 5-MOP à 1 mg/ml puis exposés aux UVA (intensité de 1,5 mW/cm²) pendant 17 minutes (échantillon PUV 10), • l'irradiation aux UVA a été faite avec la lampe PUVA 200 WALDMANN en déposant les flacons contenant le virus sur un lit de glace, afin d'éviter au maximum l'échauffement.
Les témoins pour cette expérience ont été les suivants : • le virus VIH-1 utilisé, non traité (échantillon PUV 1), • 4 ml du virus utilisé, traité uniquement par 40 µl de DMSO, afin de vérifier une éventuelle toxicité due au DMSO (échantillon PUV 2), • le virus utilisé, traité avec 10 µg/ml de 5-MOP, mais sans irradiation UVA (échantillon PUV 6), • le virus utilisé, traité uniquement par irradiation UVA pendant 17 minutes à 1,5 mW/cm² (échantillon PUV 5), • le virus utilisé, sans traitement, gardé à la température de l'expérience, pendant toute la durée du traitement, afin de vérifier la perte d'infectivité due aux conditions de la manipulation (échantillon PUV 9). […]
(In general: Cytopathic effects are the visible damage that an infection or toxin causes in cultured cells.)

The test system of assay [2] is VIH-1. Kind of assay: Residual infectivity of treated HIV-1 on primary cultures of activated human lymphocytes (reverse transcriptase activity in supernatants, 28 days). It counts as cell-based. The following applies: for log reduction at 10 µg/mL: Human immunodeficiency virus 1, Lymphocyte, light or radiation study. The protocol:
as §1, §2
Les témoins pour cette expérience ont été les suivants : • le virus VIH-1 utilisé, non traité (échantillon PUV 1), • 4 ml du virus utilisé, traité uniquement par 40 µl de DMSO, afin de vérifier une éventuelle toxicité due au DMSO (échantillon PUV 2), • le virus utilisé, traité avec 10 µg/ml de 5-MOP, mais sans irradiation UVA (échantillon PUV 6), • le virus utilisé, traité uniquement par irradiation UVA pendant 17 minutes à 1,5 mW/cm² (échantillon PUV 5), • le virus utilisé, sans traitement, gardé à la température de l'expérience, pendant toute la durée du traitement, afin de vérifier la perte d'infectivité due aux conditions de la manipulation (échantillon PUV 9).
• a - Sur cellules MT4 : Des dilutions successives de chaque échantillon ont été testées en duplicata. 100 µl de chaque dilution ont été mis en contact 1 heure à 37°C avec 3.10⁵ cellules MT4 par puits de plaque COSTAR 24 puits. Les cellules ont été centrifugées afin d'éliminer le produit éventuellement toxique, puis resuspendues dans 1 ml du milieu de culture. Aux jours 3 et 6, 750 µl de surnageant ont été ôtés, remplacés par du milieu de culture frais et la concentration cellulaire ajustée à 3.10⁵ cellules par millilitre. Au jour 10, l'effet cytopathogène et la mortalité cellulaire ont été évalués par observation au microscope après coloration au bleu Trypan. Des dosages de l'activité transcriptase inverse ont été réalisés à partir des surnageants de culture conservés à chaque passage (jours 3, 6 et 10). • b - Sur lymphocytes humains activés : Un culot de 3.10⁶ lymphocytes préalablement stimulés à la PHA a été incubé avec 1 ml de chaque échantillon (de 10⁻¹ à 10⁻⁵ pour chaque échantillon, sauf pour l'échantillon PUV10 testé également non dilué) pendant 1 heure à 37°C. Puis les cellules ont été centrifugées et resuspendues à 10⁶ cellules par millilitre dans du milieu complet. Tous les 3 ou 4 jours, les cellules ont été comptées, réensemencées à 10⁶ cellules/ml et les surnageants conservés à -80°C. […]

On to `COc1c2ccoc2cc2oc(=O)ccc12` [5-MOP, 5-méthoxypsoralène], for which the log reduction at 10 µg/mL in assay [1] (5-MOP seul à 10 µg/ml, no UVA (sample PUV6), versus control PUV9, read-out: perte d'infectivité) was 0.5; in assay [1] (5-MOP à 10 µg/ml et UVA (sample PUV10), versus control PUV9, read-out: réduction du titre infectieux) it was 2.5; in assay [2] (5-MOP à 10 µg/ml et UVA (sample PUV10, tested undiluted), activated human lymphocytes (PBL), read-out: inactivation virale) it was 3; in assay [2] (5-MOP à 10 µg/ml et UVA, overall conclusion, read-out: réduction du pouvoir infectieux du virus), ~3. Besides, in assay [2] (5-MOP seul, no UVA (control treatment), overall conclusion), the “réduction du pouvoir infectieux du virus” value is “sans effet”. Besides, the titre in assay [2] (5-MOP à 10 µg/ml et UVA (sample PUV10), activated human lymphocytes (PBL)) is 100 UI/ml.
